Where two headings read alike, the source gives them in different places.
Columns and labels:
[1] = molecular target: T1, CB1 receptor (Homo sapiens, UniProt P21554); assay: Binding assay for CB1 agonists or inverse agonists (SK-N-MC membranes, [3H]-CP-55,940); settings: for inhibition at 1 µM: read-out: CB1 receptor binding percent inhibition, test concentration 1 μM (footnote 1); for inhibition at 0.25 µM: read-out: CB1 receptor binding percent inhibition, test concentration 0.25 μM (footnote 8); for CB1 receptor binding average percent inhibition: value shown is an average percent inhibition (footnote 5), concentration not given
T1 construct: expressed in transfected cells
T1 sequence (P21554 whole entry): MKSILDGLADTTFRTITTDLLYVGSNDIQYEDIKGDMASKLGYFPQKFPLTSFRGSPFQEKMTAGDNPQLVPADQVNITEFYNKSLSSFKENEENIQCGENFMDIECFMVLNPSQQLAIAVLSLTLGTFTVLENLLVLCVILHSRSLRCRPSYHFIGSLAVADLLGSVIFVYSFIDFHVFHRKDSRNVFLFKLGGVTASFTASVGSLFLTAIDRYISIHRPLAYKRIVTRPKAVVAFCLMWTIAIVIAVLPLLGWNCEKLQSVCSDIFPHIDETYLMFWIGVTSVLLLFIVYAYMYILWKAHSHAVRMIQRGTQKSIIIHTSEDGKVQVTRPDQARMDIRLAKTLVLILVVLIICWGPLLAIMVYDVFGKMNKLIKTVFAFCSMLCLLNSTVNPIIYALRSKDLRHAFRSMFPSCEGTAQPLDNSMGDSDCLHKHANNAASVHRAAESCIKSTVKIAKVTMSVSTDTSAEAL
Procedure: (§1) The human CB1 and CB2 receptors were stably expressed in SK-N-MC cells transfected with pcDNA3 CB-1 (human) or pcDNA3 CB-2 (human). The cells were grown in T-180 cell culture flasks under standard cell culture conditions at 37° C. in a 5% CO2 atmosphere. The cells were harvested by trysinization and homogenized in a homogenization buffer (10 mM Tris, 0.2 mM MgCl2, 5 mM KCl, with protease inhibitors aprotinin, leupeptin, pepstatin A and bacitracin) and centrifuged (2000 g). The supernatant was then centrifuged in 2M sucrose (31,300 g) to produce a semi-purified membrane pellet. The pellet was resuspended in homogenization and stored at −80° C.
(§2) On the day of the assay, the pellet was thawed on ice and diluted in assay buffer (50 mM Tris-HCl, 5 mM MgCl2, 2.5 mM EDTA, 0.5 mg/mL fatty acid free bovine serum aldumin, pH 7.5). The diluted membrane pellet was added with buffer, either a test compound or vehicle standard and the radioligand [H]^3+-CP-55,940 (0.2 mM) to the wells of a 96-well polypropylene plate. Non-specific binding was measured in wells containing WIN 55,212 (10 uM). The plate was covered and incubated for 90 minutes at 30° C. The contents were then aspirated onto a Packard Unifilter GF/C filter bottom plate prewet with 0.5% polyethyleneimine. The wells of the polypropylene plate were rinsed and aspirated seven times with a 0.9% saline-0.5% Tween 20 solution. The Unifilter plate was dried, a scintillation cocktail was added to each well and the counts representing binding were quantitated in a TopCount scintillation counter.
(§3) For compounds tested, an IC50 binding value was obtained from percent inhibition studies in which various test concentrations were used. The binding value was calculated by linear regression.

[2] = molecular target: T2, CB2 receptor (Homo sapiens, UniProt P34972); assay: Binding assay for CB2 agonists or inverse agonists (SK-N-MC membranes, [3H]-CP-55,940); settings: for CB2 receptor binding percent inhibition: test concentration not stated
T2 construct: expressed in transfected cells
T2 sequence (P34972 whole entry): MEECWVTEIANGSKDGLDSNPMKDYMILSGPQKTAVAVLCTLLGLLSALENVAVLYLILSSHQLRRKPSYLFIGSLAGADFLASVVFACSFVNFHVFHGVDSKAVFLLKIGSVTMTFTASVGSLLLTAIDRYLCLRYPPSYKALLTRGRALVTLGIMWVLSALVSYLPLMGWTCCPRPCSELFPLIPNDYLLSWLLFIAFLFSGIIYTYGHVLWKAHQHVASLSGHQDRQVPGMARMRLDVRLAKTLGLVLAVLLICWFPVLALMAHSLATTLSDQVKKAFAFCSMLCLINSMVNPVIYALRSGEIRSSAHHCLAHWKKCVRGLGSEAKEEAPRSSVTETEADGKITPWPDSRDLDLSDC
Procedure: as §1
as §2, with “The diluted membrane pellet was added with buffer, either a test compound or vehicle standard and the radioligand [H]^3+-CP-55,940 (0.2 mM) to the wells of a 96-well polypropylene plate. Non-specific binding was measured in wells containing WIN 55,212 (10 uM).” left out
as §3

## O=C(NC1CCCC1)c1nn(C2CCCCC2)c2c1CCCCC2Cc1cccc(F)c1 (stereo not shown) [Cpd 52, 1-cyclohexyl-8-(3-fluoro-benzyl)-1,4,5,6,7,8-hexahydro-cycloheptapyrazole-3-carboxylic acid cyclopentylamide]
[1]
  inhibition at 1 µM: 26%
[2]
  CB2 receptor binding percent inhibition: 21%

## O=C(NCc1ccccc1)c1nn(C2CCCCC2)c2c1CCCCC2Cc1cccc(F)c1 (stereo not shown) [Cpd 53, 1-cyclohexyl-8-(3-fluoro-benzyl)-1,4,5,6,7,8-hexahydro-cycloheptapyrazole-3-carboxylic acid benzylamide]
[1]
  inhibition at 1 µM: 33%
[2]
  CB2 receptor binding percent inhibition: 52%

## O=C(c1nn(C2CCCCC2)c2c1CCCCC2Cc1cccc(F)c1)N1CCN(c2ccccc2)CC1 (stereo not shown) [Cpd 54, [1-cyclohexyl-8-(3-fluoro-benzyl)-1,4,5,6,7,8-hexahydro-cycloheptapyrazol-3-yl]-(4-phenyl-piperazin-1-yl)-methanone]
[1]
  inhibition at 1 µM: 18%
[2]
  CB2 receptor binding percent inhibition: 41%

## O=C(NC1CC1)c1nn(C2CCCCC2)c2c1CCCCC2Cc1ccc(F)cc1 (stereo not shown) [Cpd 56, 1-cyclohexyl-8-(4-fluoro-benzyl)-1,4,5,6,7,8-hexahydro-cycloheptapyrazole-3-carboxylic acid cyclopropylamide]
[1]
  inhibition at 1 µM: 0%
[2]
  CB2 receptor binding percent inhibition: 42%

## O=C(NC1CCC1)c1nn(C2CCCCC2)c2c1CCCCC2Cc1ccc(F)cc1 (stereo not shown) [Cpd 57, 1-cyclohexyl-8-(4-fluoro-benzyl)-1,4,5,6,7,8-hexahydro-cycloheptapyrazole-3-carboxylic acid cyclobutylamide]
[1]
  inhibition at 1 µM: 35%
[2]
  CB2 receptor binding percent inhibition: 29%

## O=C(NC1CCCC1)c1nn(C2CCCCC2)c2c1CCCCC2Cc1ccc(F)cc1 (stereo not shown) [Cpd 59, 1-cyclohexyl-8-(4-fluoro-benzyl)-1,4,5,6,7,8-hexahydro-cycloheptapyrazole-3-carboxylic acid cyclopentylamide]
[1]
  inhibition at 1 µM: 27%
[2]
  CB2 receptor binding percent inhibition: 60%

## O=C(c1nn(C2CCCCC2)c2c1CCCCC2Cc1ccc(F)cc1)N1CCN(c2ccccc2)CC1 (stereo not shown) [Cpd 60, [1-cyclohexyl-8-(4-fluoro-benzyl)-1,4,5,6,7,8-hexahydro-cycloheptapyrazol-3-yl]-(4-phenyl-piperazin-1-yl)-methanone]
[1]
  inhibition at 1 µM: 38%
[2]
  CB2 receptor binding percent inhibition: 38%

## O=C(NCc1ccccc1)c1nn(C2CCCCC2)c2c1CCCCC2Cc1ccc(F)cc1 (stereo not shown) [Cpd 61, 1-cyclohexyl-8-(4-fluoro-benzyl)-1,4,5,6,7,8-hexahydro-cycloheptapyrazole-3-carboxylic acid benzylamide]
[1]
  inhibition at 1 µM: 36%
[2]
  CB2 receptor binding percent inhibition: 71%

## O=C(NN1CCCCC1)c1nn(C2CCCCC2)c2c1CCCCC2Cc1ccc(F)cc1 (stereo not shown) [Cpd 62, 1-cyclohexyl-8-(4-fluoro-benzyl)-1,4,5,6,7,8-hexahydro-cycloheptapyrazole-3-carboxylic acid piperidin-1-ylamide]
[1]
  inhibition at 1 µM: 5%
[2]
  CB2 receptor binding percent inhibition: 5%

## COC(=O)[C@H](Cc1ccc(F)cc1)NC(=O)c1nn(C2CCCCC2)c2c1CCCCC2Cc1ccc(F)cc1 (stereo partly drawn) [Cpd 63, (2S)-2-{[1-cyclohexyl-8-(4-fluoro-benzyl)-1,4,5,6,7,8-hexahydro-cycloheptapyrazole-3-carbonyl]-amino}-3-(4-fluoro-phenyl)-propionic acid methyl ester]
[1]
  inhibition at 1 µM: 29%
[2]
  CB2 receptor binding percent inhibition: 69%

## C[C@H](NC(=O)c1nn(C2CCCCC2)c2c1CCCCC2Cc1ccc(F)cc1)c1ccccc1 (stereo partly drawn) [Cpd 64, 1-cyclohexyl-8-(4-fluoro-benzyl)-1,4,5,6,7,8-hexahydro-cycloheptapyrazole-3-carboxylic acid [(1S)-1-phenyl-ethyl]-amide]
[1]
  inhibition at 1 µM: 51%
[2]; calculated by linear regression from percent inhibition at various test concentrations, read-out: Cannabinoid CB2 Receptor Binding IC50
  IC50: 600 nM
[2]; test concentration 1 μM (footnote 1), read-out: CB2 receptor binding percent inhibition
  inhibition at 1 µM: 70%

## O=C(NCc1ccc(C(F)(F)F)cc1)c1nn(C2CCCCC2)c2c1CCCCC2Cc1ccc(F)cc1 (stereo not shown) [Cpd 65, 1-cyclohexyl-8-(4-fluoro-benzyl)-1,4,5,6,7,8-hexahydro-cycloheptapyrazole-3-carboxylic acid 4-trifluoromethyl-benzylamide]
[1]
  inhibition at 1 µM: 29%
[2]
  CB2 receptor binding percent inhibition: 52%

## O=C(N[C@@H](CO)c1ccccc1)c1nn(C2CCCCC2)c2c1CCCC[C@@H]2Cc1ccc(F)cc1 [Cpd 66, (8R)-1-cyclohexyl-8-(4-fluoro-benzyl)-1,4,5,6,7,8-hexahydro-cycloheptapyrazole-3-carboxylic acid [(1R)-2-hydroxy-1-phenyl-ethyl]-amide]
[1]
  inhibition at 1 µM: 16%
[2]
  CB2 receptor binding percent inhibition: 33%

## O=C(NN1CCCCC1)c1nn(Cc2ccccc2)c2c1CCCCC2c1ccccc1 (stereo not shown) [Cpd 68, 1-benzyl-8-phenyl-1,4,5,6,7,8-hexahydro-cycloheptapyrazole-3-carboxylic acid piperidin-1-ylamide]
[1]
  inhibition at 0.25 µM: 0%
[2]; read-out: CB2 receptor binding percent inhibition, test concentration 0.25 μM (footnote 8)
  inhibition at 0.25 µM: 27%

## O=C(NCc1cccc(C(F)(F)F)c1)c1nn(Cc2ccccc2)c2c1CCCCC2c1ccccc1 (stereo not shown) [Cpd 69, 1-benzyl-8-phenyl-1,4,5,6,7,8-hexahydro-cycloheptapyrazole-3-carboxylic acid 3-trifluoromethyl-benzylamide]
[1]
  inhibition at 0.25 µM: 23%
[2]; test concentration 0.25 μM (footnote 8), read-out: CB2 receptor binding percent inhibition
  inhibition at 0.25 µM: 12%

## O=C(NC1CCC1)c1nn(-c2ccc(Cl)cc2Cl)c2c1CCCCC2Cc1ccc(F)cc1 (stereo not shown) [Cpd 70, 1-(2,4-dichloro-phenyl)-8-(4-fluoro-benzyl)-1,4,5,6,7,8-hexahydro-cycloheptapyrazole-3-carboxylic acid cyclobutylamide]
[1]
  CB1 receptor binding average percent inhibition: ^(5)37%
[2]
  CB2 receptor binding percent inhibition: 3%

## CC12CCC(C1)C(C)(C)[C@H]2NC(=O)c1nn(-c2ccc(Cl)cc2Cl)c2c1CCCCC2Cc1ccc(F)cc1 (stereo partly drawn) [Cpd 71, 1-(2,4-dichloro-phenyl)-8-(4-fluoro-benzyl)-1,4,5,6,7,8-hexahydro-cycloheptapyrazole-3-carboxylic acid [(2S)-1,3,3-trimethyl-bicyclo[2.2.1]hept-2-yl]-amide]
[1]
  CB1 receptor binding average percent inhibition: ^(5)43%
[2]
  CB2 receptor binding percent inhibition: 32%

## COC(=O)[C@H](Cc1ccc(F)cc1)NC(=O)c1nn(-c2ccc(Cl)cc2Cl)c2c1CCCCC2Cc1ccc(F)cc1 (stereo partly drawn) [Cpd 72, (2S)-2-{[1-(2,4-dichloro-phenyl)-8-(4-fluoro-benzyl)-1,4,5,6,7,8-hexahydro-cycloheptapyrazole-3-carbonyl]-amino}-3-(4-fluoro-phenyl)-propionic acid methyl ester]
[1]
  CB1 receptor binding average percent inhibition: ^(5)38%
[2]
  CB2 receptor binding percent inhibition: 10%

## COC(=O)[C@H](Cc1ccc(F)cc1)NC(=O)c1nn(C2CCCCC2)c2c1CCCCC2Cc1cccc(F)c1 (stereo partly drawn) [Cpd 73, (2S)-2-{[1-cyclohexyl-8-(3-fluoro-benzyl)-1,4,5,6,7,8-hexahydro-cycloheptapyrazole-3-carbonyl]-amino}-3-(4-fluoro-phenyl)-propionic acid methyl ester]
[1]
  CB1 receptor binding average percent inhibition: ^(5)24%
[2]
  CB2 receptor binding percent inhibition: 8%

## CCOC(=O)[C@H]1C2C=CC(C2)[C@H]1NC(=O)c1nn(C2CCCCC2)c2c1CCCCC2Cc1cccc(F)c1 (stereo partly drawn) [Cpd 74, (2S,3R)-3-{[1-cyclohexyl-8-(3-fluoro-benzyl)-1,4,5,6,7,8-hexahydro-cycloheptapyrazole-3-carbonyl]-amino}-bicyclo[2.2.1]hept-5-ene-2-carboxylic acid ethyl ester]
[1]
  CB1 receptor binding average percent inhibition: ^(5)1%
[2]
  CB2 receptor binding percent inhibition: 10%

## C[C@H](NC(=O)c1nn(-c2ccc(Cl)cc2Cl)c2c1CCCCC2Cc1ccc(Cl)cc1)c1ccccc1 (stereo partly drawn) [Cpd 76, 8-(4-chloro-benzyl)-1-(2,4-dichloro-phenyl)-1,4,5,6,7,8-hexahydro-cycloheptapyrazole-3-carboxylic acid [(1S)-1-phenyl-ethyl]-amide]
[1]
  CB1 receptor binding average percent inhibition: ^(5)44%
[2]
  CB2 receptor binding percent inhibition: 38%

Reference: patent US8378117B2 (priority 2005, dated 2013)
